Results: patent publication US8916702B2 (priority 2012, dated 2014)

tested on: HCV pseudoparticles (genotype 1a HCV E1 and E2 envelope, H77C isolate); assay: microbe, parasite or virus in culture; assay type: cell-based; conditions: Hepatitis C virus, Huh-7, 48 h, read-out: Activity (EC50 class), HCV pseudoparticles, Huh7 cells, luciferase 2 days after infection; average of duplicates

COC(=O)[C@H](CNC(=O)C(=O)Nc1cccc(-c2ccncc2)c1)NC(=O)c1ccc(Nc2nc(NC3(c4ccc(Cl)cc4)CC3)nc(OCC(F)(F)F)n2)cc1 [Compound 3712] and COC(=O)[C@H](CNC(=O)C(=O)Nc1cccc(CCc2ccccn2)c1)NC(=O)c1ccc(Nc2nc(NC3(c4ccc(Cl)cc4)CC3)nc(OCC(F)(F)F)n2)cc1 [Compound 3713] fall in the same range of EC50: 0.01 to 10 nM for the first, 0.01 to 10 nM for the second.

Molecule O=C(NCC[C@H](NC(=O)c1ccc(Nc2nc(NC3(c4ccc(Cl)cc4)CC3)nc(OCC(F)(F)F)n2)cc1)C(=O)O)C(=O)Nc1cccc(-c2cnco2)c1 [Compound 3621] has an EC50 of 0.01 to 10 nM.

same assay, conditions: Hepatitis C virus, Huh-7, read-out: Activity (EC50 class), HCV pseudoparticles (genotype 1a, H77C) in Huh7 cells; EC50 expressed as class A/B

Compared with COC(=O)/C(CCNC(=O)C(=O)Nc1cccc(Cc2ccccc2)c1)=N\C(=O)c1ccc(Nc2nc(NC3(c4ccc(Cl)cc4)CC3)nc(OCC(F)(F)F)n2)cc1 [Compound 3592], COCc1ccc(NC(=O)C(=O)NCC[C@H](NC(=O)c2ccc(Nc3nc(NC4(c5ccc(Cl)cc5)CC4)nc(OCC(F)(F)F)n3)cc2)C(=O)O)cc1 [Compound 3543] is lower in EC50: 10 to 1000 nM for the first, 0.01 to 10 nM for the second. The second is the more potent here.

COC(=O)[C@H](CCNC(=O)C(=O)Nc1ccc(N2Cc3ccccc3C2)cc1)NC(=O)c1ccc(Nc2nc(NC3(c4ccc(Cl)cc4)CC3)nc(OCC(F)(F)F)n2)cc1 [Compound 3306] and COC(=O)[C@H](CCNC(=O)C(=O)Nc1ccc(-n2cnnn2)cc1)NC(=O)c1ccc(Nc2nc(NC3(c4ccc(Cl)cc4)CC3)nc(OCC(F)(F)F)n2)cc1 [Compound 3308] fall in the same range of EC50: 0.01 to 10 nM for the first, 0.01 to 10 nM for the second.

O=C(NC[C@H](NC(=O)c1ccc(Nc2nc(NC3(c4ccc(Cl)cc4)CC3)nc(OCC(F)(F)F)n2)cc1)C(=O)O)C(=O)Nc1ccc(OC2CCOCC2)cc1 [Compound 3291] and COCc1ccc(NC(=O)C(=O)NC[C@H](NC(=O)c2ccc(Nc3nc(NC4(c5ccc(Cl)cc5)CC4)nc(OCC(F)(F)F)n3)cc2)C(=O)OC)cc1 [Compound 3205] fall in the same range of EC50: 0.01 to 10 nM for the first, 0.01 to 10 nM for the second.

CC(C)(CNC(=O)C(=O)Nc1nc2ccccc2s1)CNC(=O)c1ccc(Nc2nc(NC3(c4ccc(Cl)cc4)CC3)nc(OCC(F)(F)F)n2)cc1F [Compound 3568] and COc1cc(NC(=O)C(=O)NCC(C)(C)CNC(=O)c2ccc(Nc3nc(NC4(c5ccc(Cl)cc5)CC4)nc(OCC(F)(F)F)n3)cc2)ccc1F [Compound 3069] fall in the same range of EC50: 0.01 to 10 nM for the first, 0.01 to 10 nM for the second.

Cn1cnc(NC(=O)C(=O)NCC(C)(C)CNC(=O)c2ccc(Nc3nc(NC4(c5ccc(Cl)cc5)CC4)nc(OCC(F)(F)F)n3)cc2)c1 [Compound 3178] and Cc1cc(NC(=O)C(=O)NC(C)(C)CNC(=O)c2ccc(Nc3nc(NC4(c5ccc(Cl)cc5)CC4)nc(OCC(F)(F)F)n3)cc2)no1 [Compound 3422] fall in the same range of EC50: 0.01 to 10 nM for the first, 0.01 to 10 nM for the second.

CN(CCCNC(=O)c1ccc(Nc2nc(NC3(c4ccc(Cl)cc4)CC3)nc(OCC(F)(F)F)n2)cc1)C(=O)C(=O)Nc1cc(F)cc(F)c1 [Compound 3451] and O=C(Nc1cc(F)cc(F)c1)C(=O)N(CCO)CCCNC(=O)c1ccc(Nc2nc(NC3(c4ccc(Cl)cc4)CC3)nc(OCC(F)(F)F)n2)cc1 [Compound 3507] fall in the same range of EC50: 0.01 to 10 nM for the first, 0.01 to 10 nM for the second.

CC(C)(CNC(=O)C(=O)Nc1cccc2c1Cc1ccccc1-2)CNC(=O)c1ccc(Nc2nc(NC3(c4ccc(Cl)cc4)CC3)nc(OCC(F)(F)F)n2)cc1 [Compound 3356] and Cc1cc2cccc(NC(=O)C(=O)NCC(C)(C)CNC(=O)c3ccc(Nc4nc(NC5(c6ccc(Cl)cc6)CC5)nc(OCC(F)(F)F)n4)cc3)c2o1 [Compound 3354] fall in the same range of EC50: 0.01 to 10 nM for the first, 0.01 to 10 nM for the second.

O=C(NCCCCNC(=O)c1ccc(Nc2nc(NC3(c4ccc(Cl)cc4)CC3)nc(OCC(F)(F)F)n2)cc1)C(=O)Nc1cccc(F)c1 [Compound 3390] and O=C(CNC(=O)C(=O)Nc1cccc(F)c1)CNC(=O)c1ccc(Nc2nc(NC3(c4ccc(Cl)cc4)CC3)nc(OCC(F)(F)F)n2)cc1 [Compound 3363] fall in the same range of EC50: 0.01 to 10 nM for the first, 0.01 to 10 nM for the second.

CN(CCCNC(=O)c1ccc(Nc2nc(NC3(c4ccc(Cl)cc4)CC3)nc(OCC(F)(F)F)n2)cc1)C(=O)C(=O)Nc1ccc(F)cc1F [Compound 3449] and O=C(NCCCNC(=O)c1ccc(Nc2nc(NC3(c4ccc(Cl)cc4)CC3)nc(OCC(F)(F)F)n2)cc1)C(=O)NCc1ccc(F)cc1 [Compound 3357] fall in the same range of EC50: 0.01 to 10 nM for the first, 0.01 to 10 nM for the second.

COC(=O)[C@H](CCNC(=O)C(=O)Nc1ccc(Cn2ccnc2)cc1)NC(=O)c1ccc(Nc2nc(NC3(c4ccc(Cl)cc4)CC3)nc(OCC(F)(F)F)n2)cc1 [Compound 3319] and COC(=O)[C@H](CNC(=O)C(=O)Nc1ccc(-c2nncn2C)cc1)NC(=O)c1ccc(Nc2nc(NC3(c4ccc(Cl)cc4)CC3)nc(OCC(F)(F)F)n2)cc1 [Compound 3200] fall in the same range of EC50: 0.01 to 10 nM for the first, 0.01 to 10 nM for the second.

In the case of Cc1ccc(NC(=O)C(=O)NCCNC(=O)c2ccc(Nc3nc(NC4(c5ccc(Cl)cc5)CC4)nc(OCC(F)(F)F)n3)cc2)cc1 [Compound 3371], the EC50 is reported as 0.01 to 10 nM.
